Data from the NIST ThermoML archive (doi:10.1016/j.jct.2013.09.039).

Assay: xn = mol fraction of the nth substance listed
Details: Liquid, Vibrating tube method

CCOC(=O)OCC [diethyl carbonate] + Cc1ccc(C)cc1
mass density [kg/m3]
Details	100 kPa	5000 kPa	10000 kPa	20000 kPa	30000 kPa	40000 kPa
288.15 K, x1 = 0.1014	876.7	880.1	883.7	890.3	896.1	902.1
288.15 K, x1 = 0.1346	879.5	884.1	887.8	894.3	900.3	906.3
288.15 K, x1 = 0.1949	887.5	891.2	894.8	901.3	907.5	913.4
288.15 K, x1 = 0.2767	898.3	900.9	904.5	911.3	917.4	923.5
288.15 K, x1 = 0.386	909.2	913.4	917.2	924.1	930.4	936.6
288.15 K, x1 = 0.4858	920.7	924.7	928.5	935.5	941.9	948.3
288.15 K, x1 = 0.5444	928.4	931.5	935.3	942.5	949.1	955.4
288.15 K, x1 = 0.5923	933.9	937	941	948	954.7	961.2
288.15 K, x1 = 0.6718	942.3	946.4	950.3	957.5	964.3	970.9
288.15 K, x1 = 0.7676	953.2	957.4	961.3	968.7	975.6	982.3
288.15 K, x1 = 0.8313	960.6	964.8	968.9	976.4	983.3	990.1
288.15 K, x1 = 0.9044	968.7	973.1	977.2	984.7	991.9	998.6
298.15 K, x1 = 0.1014	867.6	871.9	875.1	882	888.2	894.3
298.15 K, x1 = 0.1346	871.5	875.8	879	885.9	892.3	898.4
298.15 K, x1 = 0.1949	878.1	882.4	885.8	892.7	899.3	905.3
298.15 K, x1 = 0.2767	887.5	892	895.4	902.5	909.1	915.3
298.15 K, x1 = 0.386	899.8	904.4	907.7	915	921.9	928.2
298.15 K, x1 = 0.4858	910.7	915.2	918.8	926.3	933.2	939.6
298.15 K, x1 = 0.5444	916.8	922	925.6	933.2	940.2	946.6
298.15 K, x1 = 0.5923	922.8	927.4	931.1	938.5	945.8	952.3
298.15 K, x1 = 0.6718	931.7	936.5	940.3	947.8	955.1	961.8
298.15 K, x1 = 0.7676	942.4	947.3	951	959	966.3	973.1
298.15 K, x1 = 0.8313	949.8	954.7	958.4	966.4	973.8	980.8
298.15 K, x1 = 0.9044	957.6	962.7	966.6	974.7	982.2	989.1
308.15 K, x1 = 0.1014	858.7	862.8	866.6	873.8	880.4	886.6
308.15 K, x1 = 0.1346	862.5	866.7	870.4	877.7	884.5	890.8
308.15 K, x1 = 0.1949	868.9	873	876.5	884.2	891.1	897.5
308.15 K, x1 = 0.2767	878.2	882.4	886.5	893.8	900.8	907.3
308.15 K, x1 = 0.386	890.1	894.5	898.5	906.2	913.3	919.9
308.15 K, x1 = 0.4858	900.7	905.2	909.2	917.2	924.5	931.2
308.15 K, x1 = 0.5444	907.2	911.7	916	923.9	931.3	938.1
308.15 K, x1 = 0.5923	912.6	916.9	921.4	929.4	936.8	943.7
308.15 K, x1 = 0.6718	921.3	925.7	930.3	938.4	945.9	952.9
308.15 K, x1 = 0.7676	931.8	936.5	940.9	949.2	957	964.1
308.15 K, x1 = 0.8313	939	943.6	948.1	956.6	964.2	971.6
308.15 K, x1 = 0.9044	946.7	951.5	956.2	964.5	972.6	979.9
